From US20160039802A1, “3-PYRIMIDIN-4-YL-OXAZOLIDIN-2-ONES AS INHIBITORS OF MUTANT IDH” (NOVARTIS AG, priority 2013, published 2016) come the findings set out here.

One assay deals with T1, Mutant IDH1 R132H (Homo sapiens, UniProt O75874, R132H).
T1 construct: His6 with PreScission site (N, cleaved yes); made in house; host or cells: E. coli Rosetta 2(DE3)
Nature of the assay: Mutant IDH1 biochemical assay: LC-MS detection of 2-HG. Note: mIDH R132H 0.25 nM, 5 µM NADPH. Conditions: mIDH R132H […], 5 uM NADPH, 100 uM alpha-KG, 45 minutes incubation; range where run multiple times. An excerpt: Mutant IDH1 biochemical Sssay: LC-MS Detection of 2-HG.

In a further assay the target is T2, IDH1 (R132H) mutant (Homo sapiens, UniProt O75874, R132H).
T2 construct: His6 with PreScission site (N, cleaved yes); made in house; host or cells: E. coli Rosetta 2(DE3)
Nature of the assay: Fluorescence biochemical assay (NADPH oxidation). Conditions: mIDH R132H 10 nM, 10 μM NADPH, 100 μM α-KG; range where run multiple times. On the procedure: The IDH1 (R132H) mutant catalyzes the reduced form of NADP+ (NADPH) and α-ketoglutarate (α-KG) to form nicotinamide adenine dinucleotide phosphate (NADP+) and R(−)-2-hydroxyglutarate (2HG). […] Reactions were monitored using the Perkin-Elmer Envision, Model 2101. […] The final reaction mixture contained 2.5% DMSO and test compounds with concentrations ranging 0.0000008-25 μM. The IDH1 (R132H) enzyme was used at a final concentration of 10 nM. Curve fitting for dose response […] determinations was done in the Helios module of the software package DAVID. The 4-parameter logistic model was used: y=min+((max−min)/1+(x/IC50)^shape)

Structures are written as SMILES.

T1 sequence (O75874 whole entry R132H): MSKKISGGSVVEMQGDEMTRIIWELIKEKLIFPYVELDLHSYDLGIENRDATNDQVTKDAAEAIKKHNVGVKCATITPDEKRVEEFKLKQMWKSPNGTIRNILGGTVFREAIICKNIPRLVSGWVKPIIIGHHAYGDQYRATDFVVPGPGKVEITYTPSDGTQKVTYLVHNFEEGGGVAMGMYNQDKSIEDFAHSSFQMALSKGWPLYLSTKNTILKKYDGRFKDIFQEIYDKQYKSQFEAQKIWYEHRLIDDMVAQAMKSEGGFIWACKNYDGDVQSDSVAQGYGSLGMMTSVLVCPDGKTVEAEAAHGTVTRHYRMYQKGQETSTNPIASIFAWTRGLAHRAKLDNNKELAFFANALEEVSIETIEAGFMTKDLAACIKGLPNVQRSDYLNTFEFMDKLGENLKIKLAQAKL
T2 sequence (O75874 whole entry R132H): as above

As to `Cc1cc(-c2cnc(C(C)Nc3nccc(N4C(=O)OC[C@]4(C)C4CC4)n3)nc2)ccc1F` (single isomer, unassigned) [Example 53], the IC50 – broadly, the concentration needed to halve the response being measured – against Mutant IDH1 R132H is 0.0227 to 0.0354 µM; on IDH1 (R132H) mutant it was 0.0362 µM.

Consider `C[C@H](Nc1nccc(N2C(=O)OC[C@]2(C)C2CC2)n1)c1ccc(CN2CCC(N)CC2)c(F)c1` [Example 41, (S)-3-(2-(((S)-1-(4-((4-aminopiperidin-1-yl)methyl)-3-fluorophenyl)ethyl)amino)pyrimidin-4-yl)-4-cyclopropyl-4-methyloxazolidin-2-one], for which the IC50 is 0.376 µM against Mutant IDH1 R132H and 0.194 to 0.473 µM against IDH1 (R132H) mutant.

With `C[C@H](Nc1nc(Cl)cc(N2C(=O)OC[C@@H]2C2CC2)n1)c1cc(F)c(-c2cnn(C)c2)cc1F` [Example 18, (S)-3-(6-chloro-2-(((S)-1-(2,5-difluoro-4-(1-methyl-1H-pyrazol-4-yl)phenyl)ethyl)amino)pyrimidin-4-yl)-4-cyclopropyl oxazolidin-2-one], the IC50 came to 0.0158 µM against Mutant IDH1 R132H and 0.0238 µM at IDH1 (R132H) mutant. The like results for `CNC1CCN(Cc2ccc([C@H](C)Nc3nccc(N4C(=O)OC[C@]4(C)C4CC4)n3)cc2F)CC1` [Example 40, (S)-4-cyclopropyl-3-(2-(((S)-1-(3-fluoro-4-((4-(methylamino)piperidin-1-yl)methyl)phenyl)ethyl)amino)pyrimidin-4-yl)-4-methyloxazolidin-2-one] were, in that order, 0.117 µM and 0.105 to 0.111 µM. For the compound `C[C@H](Nc1nc(Cl)cc(N2C(=O)OC[C@@H]2C2CC2)n1)c1cn(-c2ccc(F)cc2)cn1` [Example 27, (S)-3-(6-chloro-2-(((S)-1-(1-(4-fluorophenyl)-1H-imidazol-4-yl)ethyl)amino)pyrimidin-4-yl)-4-cyclopropyloxazolidin-2-one], the IC50 on Mutant IDH1 R132H amounted to 0.02 µM; against IDH1 (R132H) mutant, 0.00727 µM. As for `CC(Nc1nccc(N2C(=O)OC[C@]2(C)C2CC2)n1)c1nc(-c2ccc(Cl)cc2)no1` (single isomer, unassigned) [Example 50], the IC50 against Mutant IDH1 R132H was 0.0202 to 0.026 µM; against IDH1 (R132H) mutant it was 0.0629 µM. With `C[C@H](Nc1nccc(N2C(=O)OCC2(C)C2CC2)n1)c1ccc(F)cc1` (single isomer, unassigned) [Example 46], the IC50 on Mutant IDH1 R132H is 0.791 µM; on IDH1 (R132H) mutant, 0.793 to 1.21 µM. As to `C[C@H](Nc1ncc(F)c(N2C(=O)OCC2(C)C2CC2)n1)c1ccc(CN2CCC(N(C)C)CC2)cc1F` (single isomer, unassigned) [Example 57], the IC50 against Mutant IDH1 R132H was 0.868 µM; at IDH1 (R132H) mutant it was 0.29 µM. The corresponding values for `C[C@H](Nc1nccc(N2C(=O)OC[C@]2(C)C2CC2)n1)c1ccc(CN2CCC(C)(O)CC2)cc1F` [Example 34, (S)-4-cyclopropyl-3-(2-(((S)-1-(2-fluoro-4-((4-hydroxy-4-methylpiperidin-1-yl)methyl)phenyl)ethyl)amino)pyrimidin-4-yl)-4-methyloxazolidin-2-one] are 0.192 µM and 0.0418 to 0.0531 µM. In the case of `C[C@H](Nc1ncc(F)c(N2C(=O)OCC2(C)C2CC2)n1)c1ccc(CN2CCC(N(C)C)CC2)c(F)c1` (stereo partly drawn) [Example 36, 4-cyclopropyl-3-(2-(((S)-1-(4-((4-(dimethylamino)piperidin-1-yl)methyl)-3-fluorophenyl)ethyl)amino)-5-fluoropyrimidin-4-yl)-4-methyloxazolidin-2-one], at Mutant IDH1 R132H, half-maximal inhibition (IC50) was put at 0.963 µM. As for `C[C@H](Nc1ncc(F)c(N2C(=O)OCC2(C)C2CC2)n1)c1ccc(CN2CCC(C)(N)CC2)c(F)c1` (single isomer, unassigned) [Example 60], the IC50 on Mutant IDH1 R132H is 1.52 µM; on IDH1 (R132H) mutant it was 0.584 µM. In the case of `C[C@H](Nc1nc(Cl)cc(N2C(=O)OC[C@@H]2C2CC2)n1)c1ccc(C(C)(C)F)cc1F` [Example 20, (S)-3-(6-chloro-2-(((S)-1-(2-fluoro-4-(2-fluoropropan-2-yl)phenyl)ethyl)amino)pyrimidin-4-yl)-4-cyclopropyloxazolidin-2-one], the IC50 was 0.0839 µM against Mutant IDH1 R132H and 0.218 µM against IDH1 (R132H) mutant.

For `C[C@H](Nc1nc(Cl)cc(N2C(=O)OC[C@@H]2C2CC2)n1)c1ccc(-c2cnn(C)c2)cc1F` [Example 19, (S)-3-(6-chloro-2-(((S)-1-(2-fluoro-4-(1-methyl-1H-pyrazol-4-yl)phenyl)ethyl)amino)pyrimidin-4-yl)-4-cyclopropyloxazolidin-2-one], the figures for the IC50 at Mutant IDH1 R132H and on IDH1 (R132H) mutant were 0.0572 µM and 0.0443 µM, respectively.

Take `C[C@H](Nc1nc(Cl)cc(N2C(=O)OC[C@@H]2C2CC2)n1)c1nc(-c2ccc(Cl)cc2)no1` [Example 3, (S)-3-(6-chloro-2-((S)-1-(3-(4-chlorophenyl)-1,2,4-oxadiazol-5-yl)ethylamino)pyrimidin-4-yl)-4-cyclopropyloxazolidin-2-one]: the IC50 at Mutant IDH1 R132H is less than 0.0229 µM; against IDH1 (R132H) mutant, 0.0269 µM. The like results for `C[C@H](Nc1ncc(F)c(N2C(=O)OCC2(C)C2CC2)n1)c1ccc(CN2CCC(C)(N)CC2)c(F)c1` (single isomer, unassigned) [Example 59] were, in that order, 0.922 µM and 0.183 µM. In the case of `CC(Nc1nccc(N2C(=O)OC[C@]2(C)C2CC2)n1)c1nc(-c2ccc(Cl)cc2)no1` (single isomer, unassigned) [Example 49], at Mutant IDH1 R132H, the IC50 was found to be 2.52 µM. Take `C[C@H](Nc1ncc(F)c(N2C(=O)OCC2(C)C2CC2)n1)c1ccc(CN2CCC(N(C)C)CC2)cc1F` (single isomer, unassigned) [Example 58]: the IC50 against Mutant IDH1 R132H turned out to be 2.72 µM; against IDH1 (R132H) mutant, 0.971 µM. `CC(Nc1nccc(N2C(=O)OC[C@@]2(C)C2CC2)n1)c1nc(-c2ccc(Cl)cc2)no1` (single isomer, unassigned) [Example 52] displayed an IC50 on Mutant IDH1 R132H of 0.0326 to 0.054 µM. `CC(Nc1nccc(N2C(=O)OC[C@]2(C)C2CC2)n1)c1nc(-c2ccc(Cl)c(OC(F)(F)F)c2)no1` (single isomer, unassigned) [Example 63]: the IC50 at Mutant IDH1 R132H is 2.26 µM; against IDH1 (R132H) mutant, 1.89 to 2.12 µM. Take `C[C@H](Nc1ncc(F)c(N2C(=O)OCC2(C)C2CC2)n1)c1ccc(CN2CCC(C)(N)CC2)cc1F` (single isomer, unassigned) [Example 61]: the figures for the IC50 at Mutant IDH1 R132H and against IDH1 (R132H) mutant were 0.696 µM and 0.236 µM, respectively.

Compound `C[C@H](Nc1nccc(N2C(=O)OCC2(C)C2CC2)n1)c1ccc(CN2CCN(C)C(C)(C)C2)cc1` (single isomer, unassigned) [Example 56] returned an IC50 at Mutant IDH1 R132H of 0.527 µM.

For `C[C@H](Nc1nccc(N2C(=O)OC[C@]2(C)C2CC2)n1)c1ccc(CN2CCC(C)(N(C)C)CC2)c(F)c1` [Example 37, (S)-4-cyclopropyl-3-(2-(((S)-1-(4-((4-(dimethylamino)-4-methylpiperidin-1-yl)methyl)-3-fluorophenyl)ethyl)amino)pyrimidin-4-yl)-4-methyloxazolidin-2-one], 0.0286 µM corresponded to half-maximal inhibition against Mutant IDH1 R132H (IC50). The compound `C[C@H](Nc1nccc(N2C(=O)OCC2(C)C2CC2)n1)c1ccc(CN2CCN(C)CC2)cc1` (single isomer, unassigned) [Example 48] displayed a half-maximal inhibitory concentration (IC50) against Mutant IDH1 R132H of 2.66 µM. Consider `C[C@H](Nc1nccc(N2C(=O)OC[C@]2(C)C2CC2)n1)c1ccc(CN2CCC(N)(CO)CC2)c(F)c1` [Example 42, (S)-3-(2-(((S)-1-(4-((4-amino-4-(hydroxymethyl)piperidin-1-yl)methyl)-3-fluorophenyl)ethyl)amino)pyrimidin-4-yl)-4-cyclopropyl-4-methyloxazolidin-2-one], for which the IC50 against Mutant IDH1 R132H stood at 0.217 µM.
